For this experiment, the system named is C57BL/6 mice with UUO surgical ligation. As to the kind of experiment: Example 1: UUO mice, kidney weight evaluation (ligated vs non-ligated kidney). In kind it is in vivo. The note with it: doses of Table 1 (Telmisartan 5 mg/kg). As to the method: Male 9-12 week old C57BL/6 mice of 23-25 grams body weight were used. All mice were acclimated for a minimum of 5 days prior to the start of the study and housed individually in microisolators throughout the study in a 12:12 light-dark cycle on a standard maintenance mouse chow diet (Harlan Teklad 2018) with food and water given ad libitum. Prior to surgery, all mice were weighed for baseline body weight.
The UUO surgical intervention was performed according to previously described methods known in the art (Le Meur Y et al., Macrophage accumulation at a site of renal inflammation is dependent on the M-CSF/c-fms pathway, J Leukocyte Biol., 72:530-537; 2002). […]
The dose selected for the animal studies was determined by taking the maximum known human daily dose, dividing by the average weight of an adult (˜60-70 kg) to get a human mg/kg dose. […]
Kidney weight: The UUO was then examined in situ to ensure that the surgical ligation ties remained patent. […] Weights of both kidneys were measured using a laboratory balance.
Kidney Weight Evaluation: Kidney weight indicating, which indicates functional and pathological changes in the kidney, was evaluated by measuring the weight of both the ligated (UUO) and non-ligated kidneys as previously described. […]

Each structure is given as a SMILES string. Entries after “also recorded” stand apart in the source; their conditions may differ.

For `CCCc1nc2c(C)cc(-c3nc4ccccc4n3C)cc2n1Cc1ccc(-c2ccccc2C(=O)O)cc1` [Telmisartan, 2-(4-{[4-Methyl-6-(1-methyl-1H-1,3-benzodiazol-2-yl)-2-propyl-1H-1,3-benzodiazol-1-yl]methyl}phenyl)benzoic acid], the “Disparity in weight between ligated and non-ligated kidney, in words” value was “greatest numerical reduction in the disparity between the two kidneys; also recorded: appeared to reduce the disparity in kidney size”.
